Data published in patent US20230382863A1, “MEK INHIBITORS AND USES THEREOF” (Ikena Oncology, Inc., priority 2022, published 2023).

Experiments:
pERK HCT-116 (G13D) = pERK HCT-116 (G13D) ICW (4 hour); assay type: cell-based; conditions: Homo sapiens, read-out: pERK HCT-116 (G13D) ICW (4 hour): Average IC50 (nM)
MEK1-CRAF complex = MEK1-CRAF complex (Homo sapiens (Human), UniProt Q02750); assay: Stabilization of MEK1-CRAF complex assay (AlphaLISA); assay type: binding
Procedure: MEK1 was diluted to 4 nM, and nickel chelate donor beads and glutathione acceptor beads were diluted to 80 μg/mL. CRAF was diluted to a top concentration of 160 nM, which was subsequently diluted to 80, 40, 20, 10, 5, 2.5, 1.25, and 0.625 nM through 1:2 serial dilution.
Exemplary MEK inhibitor compounds (0, 0.01, 0.1, or 1 μM) were added to a 384-AlphaPlate (PerkinElmer, 6008350) by a digital liquid dispenser (Tecan D300e) based on a total volume of 20 μL reaction mixture.
5 μL 4×MEK1 stock solution was added to wells A1-P20 by multichannel pipettes. The plate was sealed with clear olefin sealing tape (Thermo Scientific, 232701), centrifuged at 1000 rpm for 1 minute, and incubated at room temperature for 30 minutes.
5 μL 4×CRAF stock solution at different concentrations or 5 μL or 10 μL AlphaLISA buffer was added by multichannel pipettes. The plate was sealed, centrifuged at 1000 rpm for 1 minute, and incubated at room temperature for 60 minutes.
5 μL 4×glutathione acceptor beads were first added to all wells by multichannel pipettes. The ambient light was subsequently adjusted to <100 lux (light meter) before adding 5 μL 4×nickel chelate donor beads to the same wells. From this step on, the plate was covered with a black plate cover, centrifuged at 1000 rpm for 1 minute, and incubated at room temperature for 60 minutes.
Data were collected on a PHERAStar FSX (BMG LABTECH) using the AlphaLISA module (excitation: 680 nm, emission: 615 nm), with a gain of 3600. The excitation time was 0.30 seconds, and data collection started after a 0.04-second delay for a total integration time of 0.60 seconds.
The individual AlphaLISA counts of wells with exemplary MEK inhibitor compound were divided by the average AlphaLISA counts of wells without compound to obtain AlphaLISA signal/background ratio (S/B). The dissociation constant (KD) of MEK1-CRAF was calculated using nonlinear regression curve fit in GraphPad PRISM® 9.0 software.

Pharmacokinetics in rat = assay type: in vivo; conditions: plasma, IV, 0.2 mg/kg
[1] = system: Phosphorylation of MEK1/2 in AsPC1 cells; assay: 4 hour pMEK1/2 MSD Assay; assay type: cell-based; conditions: Homo sapiens; AsPC1, 4 hours; read-out: pMEK IC50
Procedure: AsPC1 cells were seeded at 10,000 cells/well overnight in 96-well plates, then treated with a 12-point dose response of compounds (Starting dose of 1000 nM and 3-fold dilution) for 4 hours. AsPC1 cells are a K-Ras mutant (G12D) pancreatic cancer cell line. Phosphorylation of MEK1/2 on residues Ser217 and Ser221 were detected using a MesoScale Discovery (MSD) assay (MSD Cat #K15129D-2). MEK1/2 phosphorylation levels were normalized to total MEK1/2 protein detected in each well on the same MSD plate. IC50 values were determined by fitting a variable slope, four parameters curve to the compound concentration to normalized Phospho-MEK1/2 relationship.

[2] = Cassette pharmacokinetics studies in mice; assay type: in vivo; conditions: male, Balb/c, plasma, Mouse
How it was run: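 Male Balb/c mice (3 per route) received cassette doses in 5% DMSO/95% PEG400 at 2 mg/kg IV (1 mg/kg where IV*) or 5 mg/kg PO. Plasma sampled to 24 h, acetonitrile-precipitated with internal standard, quantified by HPLC/MS/MS against 0.5-1,000 ng/mL standards.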

uMEK/BRAF = uMEK/BRAF (Homo sapiens (Human), UniProt Q02750); assay: MEK-RAF Binding Assay (uMEK/BRAF HTRF)
Chain of uMEK/BRAF (Q02750 whole entry): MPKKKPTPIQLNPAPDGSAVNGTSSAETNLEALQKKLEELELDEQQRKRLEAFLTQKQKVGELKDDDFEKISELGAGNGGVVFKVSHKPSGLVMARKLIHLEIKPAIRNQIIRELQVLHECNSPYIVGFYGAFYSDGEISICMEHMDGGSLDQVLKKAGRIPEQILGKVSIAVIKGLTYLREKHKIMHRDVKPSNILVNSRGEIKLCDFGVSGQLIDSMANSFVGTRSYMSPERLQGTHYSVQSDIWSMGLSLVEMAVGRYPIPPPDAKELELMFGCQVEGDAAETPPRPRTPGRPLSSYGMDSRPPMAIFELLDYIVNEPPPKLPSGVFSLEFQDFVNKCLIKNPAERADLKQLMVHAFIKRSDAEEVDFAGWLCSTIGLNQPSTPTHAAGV

Chain of MEK1-CRAF complex (Q02750 whole entry, looked up): as the sequence (Q02750 whole entry) above
Chain of MEK1-CRAF complex (P04049 whole entry partner, looked up): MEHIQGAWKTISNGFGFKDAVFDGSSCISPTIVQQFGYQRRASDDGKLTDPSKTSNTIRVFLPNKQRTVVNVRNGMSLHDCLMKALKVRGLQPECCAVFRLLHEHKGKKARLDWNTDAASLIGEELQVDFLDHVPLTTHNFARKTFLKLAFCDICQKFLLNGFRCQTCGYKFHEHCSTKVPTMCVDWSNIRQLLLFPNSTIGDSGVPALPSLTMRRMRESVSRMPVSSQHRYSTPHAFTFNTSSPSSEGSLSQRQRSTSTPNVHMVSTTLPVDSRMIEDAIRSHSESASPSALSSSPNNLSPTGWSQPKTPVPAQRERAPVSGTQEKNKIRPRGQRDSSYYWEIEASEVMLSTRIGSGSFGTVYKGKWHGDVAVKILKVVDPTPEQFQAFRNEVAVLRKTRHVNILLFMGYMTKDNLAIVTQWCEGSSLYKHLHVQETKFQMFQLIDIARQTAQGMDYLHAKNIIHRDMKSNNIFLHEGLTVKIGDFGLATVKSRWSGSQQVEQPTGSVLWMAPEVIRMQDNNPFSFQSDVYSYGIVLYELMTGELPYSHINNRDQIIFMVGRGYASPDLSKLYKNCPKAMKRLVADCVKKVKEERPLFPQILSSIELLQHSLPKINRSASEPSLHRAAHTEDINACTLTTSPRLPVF

**Q.** With `CNS(=O)(=O)Nc1cccc(Oc2c(C(=O)NC3CC3)c(Nc3ccc(I)cc3F)n(C)c(=O)c2C)c1OC` [Compound I-1] as the compound, how does the IC50 (pERK HCT-116 (G13D)) read?
**A.** < 100 nM

**Q.** And the “KD Ratio (mean), compound to DMSO” value (MEK1-CRAF complex; compound 0.01 μM)?
**A.** 0.80

**Q.** And the “KD Ratio (mean), compound to DMSO” value (MEK1-CRAF complex; compound 0.1 μM)?
**A.** 0.55

**Q.** And the “KD Ratio (mean), compound to DMSO” value (MEK1-CRAF complex; compound 1 μM)?
**A.** 0.42

**Q.** What about the AUC(0-inf) (Pharmacokinetics in rat) of the same compound?
**A.** 107 ng·h/mL

**Q.** What about the AUC(0-t) (Pharmacokinetics in rat) of the same compound?
**A.** 100 ng·h/mL

**Q.** What about the clearance (Pharmacokinetics in rat) of the same compound?
**A.** 31.9 mL/min/kg

**Q.** What about the half-life (Pharmacokinetics in rat) of the same compound?
**A.** 2.4 h

**Q.** What about the Vd (Pharmacokinetics in rat; read-out: Vdss) of the same compound?
**A.** 4.2 L/kg

**Q.** What about the IC50 [1] of the same compound?
**A.** < 100 nM

**Q.** And the AUC(0-inf) ([2]; IV, 2 mg/kg)?
**A.** 455 ng·h/mL

**Q.** And the AUC(0-t) ([2]; IV, 2 mg/kg)?
**A.** 452 ng·h/mL

**Q.** What about the clearance ([2]; IV, 2 mg/kg) of the same compound?
**A.** 74.9 mL/min/kg

**Q.** What about the half-life ([2]; IV, 2 mg/kg) of the same compound?
**A.** 1.67 h

**Q.** And the Vd ([2]; IV, 2 mg/kg, read-out: Vdss)?
**A.** 3.2 L/kg

**Q.** What about the AUC(0-inf) ([2]; PO, 5 mg/kg) of the same compound?
**A.** 635 ng·h/mL

**Q.** What about the AUC(0-t) ([2]; PO, 5 mg/kg) of the same compound?
**A.** 614 ng·h/mL

**Q.** What about the Cmax ([2]; PO, 5 mg/kg) of the same compound?
**A.** 432 ng/mL

**Q.** And the Tmax ([2]; PO, 5 mg/kg)?
**A.** 0.4 h

**Q.** What about the half-life ([2]; PO, 5 mg/kg) of the same compound?
**A.** 11.6 h

**Q.** What about the IC50 (uMEK/BRAF) of the same compound?
**A.** < 100 nM
